# Reference: publication PMC6120666 (The EMBO Journal, 2018)
# Key:
# Assay in all cases: Drug affinity chromatography with c-ponatinib and LC-MS/MS (ponatinib interactome)
# Format in all cases: binding
# [1] = biological target: T1, proteins of U2OS cell lysate (Homo sapiens, UniProt O00159)
# T1 construct: Proteins enriched by c-ponatinib from U2OS cell lysate; endogenous in cells; host or cells: U2OS cell lysate
# Protocol: (§1) Drug affinity chromatography
# (§2) U2OS cells were grown until approximately 80% confluent before being pelleted and washed with PBS. Cell pellets were subsequently lysed in buffer A (50 mM Tris pH 7.5, 0.8% v/v NP-40, 5% v/v glycerol, 1.5 mM MgCl2, 100 mM NaCl, 25 mM NaF, 1 mM Na3VO4, 1 mM PMSF, 1mM DTT, 10 μg/mL TLCK, 1 μg/ml Leupeptin, 1 μg/ml Aprotinin, 1 μg/ml soy bean trypsin) and lysates prepared […]
# (§3) concentration was determined and lysates stored at -80 °C.
# (§4) Briefly, 100 μl of bead slurry (50% in isopropanol) were used for each pulldown experiment. Beads were washed with DMSO (3 × 500 μl), and resuspended in DMSO (50 μl), to which the amine (0.025 μmol) and triethylamine (0.75 μl) were added. The beads were incubated at room temperature for 16 h, and depletion of free amine from the supernatant was determined by LC-MS analysis. Ethanolamine (2.5 μl) was then added to block any unreacted NHS sites, and the beads incubated for a further 16 h. Derivatized beads were then washed with DMSO (3 × 500 μl), buffer A (3 × 1 ml), and incubated with cell lysates (2 mg of protein per pulldown, at 6 […]
# (§5) Beads and treated lysates were incubated for 2 h at 4 °C before washing with buffer A (5 ml), Buffer B (50 mM HEPES pH 7.5, 100 mM NaCl, 500 μM EDTA, 2.5 ml), and eluted with formic acid (100 mM, 250 μl). Samples were neutralized with triethylammoniumbicarbonate (TEAB, 1M, 62.5 μl) and stored at -20 °C until preparation for proteomic analysis.
# (§6) Samples were reduced with DTT (10 mM final concentration) for 30 min at room temperature, alkylated with iodoacetamide (55 mM final concentration) for 30 min at room temperature, diluted to 300 μl with TEAB, and incubated with trypsin (6 μl, 0.2 mg/ml) overnight at 37 °C. The digests were desalted using SEPAC lite columns (Waters), eluted with 69 % v/v MeCN, 0.1 % v/v FA in H2O (1 ml) and dried in vacuo. Dried peptides were stored at -20 °C before resuspension in 2 % v/v MeCN, 1 % v/v FA in H2O (20 μl) for LC-MS/MS analysis.
# (§7) LC-MS/MS data acquisition
# (§8) Mass spectrometry data was acquired at the Discovery Proteomics Facility (University of Oxford).
# (§9) Digested samples were analyzed by nano-UPLC–MS/MS using a Dionex Ultimate 3000 nano UPLC with EASY spray column (75 μm × 500 mm, 2 μm particle size, Thermo Fisher Scientific) with a 60 min gradient of 0.1 % (v/v) formic acid in 5 % (v/v) DMSO to 0.1 % (v/v) formic acid with 35 % (v/v) acetonitrile in 5 % (v/v) DMSO at a flow rate of approximately 250 nl min−1 (600 bar per 40 °C column temperature). Mass spectrometry data was acquired either with an Orbitrap Q Exactive (Survey scans acquired at a resolution of 70,000 @ 200m/z and the 15 most abundant precursors were selected for HCD fragmentation), or an Orbitrap Q Exactive High Field (HF) instrument (survey scans were […]
# [2] = biological target: T2, proteins of U2OS cell lysate (Homo sapiens, UniProt O75396)
# T2 construct: Proteins enriched by c-ponatinib from U2OS cell lysate; endogenous in cells; host or cells: U2OS cell lysate
# Protocol: as §1, §2, §3, §4, §5, §6, §7, §8, §9
# [3] = biological target: T3, proteins of U2OS cell lysate (Homo sapiens, UniProt O95373)
# T3 construct: Proteins enriched by c-ponatinib from U2OS cell lysate; endogenous in cells; host or cells: U2OS cell lysate
# Protocol: as §1, §2, §3, §4, §5, §6, §7, §8, §9
# [4] = biological target: T4, proteins of U2OS cell lysate (Homo sapiens, UniProt P07900)
# T4 construct: Proteins enriched by c-ponatinib from U2OS cell lysate; endogenous in cells; host or cells: U2OS cell lysate
# Protocol: as §1, §2, §3, §4, §5, §6, §7, §8, §9
# [5] = biological target: T5, proteins of U2OS cell lysate (Homo sapiens, UniProt P10515)
# T5 construct: Proteins enriched by c-ponatinib from U2OS cell lysate; endogenous in cells; host or cells: U2OS cell lysate
# Protocol: as §1, §2, §3, §4, §5, §6, §7, §8, §9
# [6] = biological target: T6, proteins of U2OS cell lysate (Homo sapiens, UniProt P12270)
# T6 construct: Proteins enriched by c-ponatinib from U2OS cell lysate; endogenous in cells; host or cells: U2OS cell lysate
# Protocol: as §1, §2, §3, §4, §5, §6, §7, §8, §9
# [7] = biological target: T7, proteins of U2OS cell lysate (Homo sapiens, UniProt P60900)
# T7 construct: Proteins enriched by c-ponatinib from U2OS cell lysate; endogenous in cells; host or cells: U2OS cell lysate
# Protocol: as §1, §2, §3, §4, §5, §6, §7, §8, §9
# [8] = biological target: T8, proteins of U2OS cell lysate (Homo sapiens, UniProt Q01130)
# T8 construct: Proteins enriched by c-ponatinib from U2OS cell lysate; endogenous in cells; host or cells: U2OS cell lysate
# Protocol: as §1, §2, §3, §4, §5, §6, §7, §8, §9
# [9] = biological target: T9, proteins of U2OS cell lysate (Homo sapiens, UniProt Q13233)
# T9 construct: Proteins enriched by c-ponatinib from U2OS cell lysate; endogenous in cells; host or cells: U2OS cell lysate
# Protocol: as §1, §2, §3, §4, §5, §6, §7, §8, §9
# [10] = biological target: T10, proteins of U2OS cell lysate (Homo sapiens, UniProt Q13347)
# T10 construct: Proteins enriched by c-ponatinib from U2OS cell lysate; endogenous in cells; host or cells: U2OS cell lysate
# Protocol: as §1, §2, §3, §4, §5, §6, §7, §8, §9
# [11] = biological target: T11, proteins of U2OS cell lysate (Homo sapiens, UniProt Q13435)
# T11 construct: Proteins enriched by c-ponatinib from U2OS cell lysate; endogenous in cells; host or cells: U2OS cell lysate
# Protocol: as §1, §2, §3, §4, §5, §6, §7, §8, §9
# [12] = biological target: T12, proteins of U2OS cell lysate (Homo sapiens, UniProt Q15459)
# T12 construct: Proteins enriched by c-ponatinib from U2OS cell lysate; endogenous in cells; host or cells: U2OS cell lysate
# Protocol: as §1, §2, §3, §4, §5, §6, §7, §8, §9
# [13] = biological target: T13, proteins of U2OS cell lysate (Homo sapiens, UniProt Q7RTV0)
# T13 construct: Proteins enriched by c-ponatinib from U2OS cell lysate; endogenous in cells; host or cells: U2OS cell lysate
# Protocol: as §1, §2, §3, §4, §5, §6, §7, §8, §9
# [14] = biological target: T14, proteins of U2OS cell lysate (Homo sapiens, UniProt Q96P70)
# T14 construct: Proteins enriched by c-ponatinib from U2OS cell lysate; endogenous in cells; host or cells: U2OS cell lysate
# Protocol: as §1, §2, §3, §4, §5, §6, §7, §8, §9
# [15] = biological target: T15, proteins of U2OS cell lysate (Homo sapiens, UniProt Q9UBM7)
# T15 construct: Proteins enriched by c-ponatinib from U2OS cell lysate; endogenous in cells; host or cells: U2OS cell lysate
# Protocol: as §1, §2, §3, §4, §5, §6, §7, §8, §9
# [16] = biological target: T16, proteins of U2OS cell lysate (Homo sapiens, UniProt Q9UBN7)
# T16 construct: Proteins enriched by c-ponatinib from U2OS cell lysate; endogenous in cells; host or cells: U2OS cell lysate
# Protocol: as §1, §2, §3, §4, §5, §6, §7, §8, §9
# [17] = system: proteins of U2OS cell lysate
# Protocol: as §1, §2, §3, §4, §5, §6, §7, §8, §9
# T8 sequence (Q01130 whole entry): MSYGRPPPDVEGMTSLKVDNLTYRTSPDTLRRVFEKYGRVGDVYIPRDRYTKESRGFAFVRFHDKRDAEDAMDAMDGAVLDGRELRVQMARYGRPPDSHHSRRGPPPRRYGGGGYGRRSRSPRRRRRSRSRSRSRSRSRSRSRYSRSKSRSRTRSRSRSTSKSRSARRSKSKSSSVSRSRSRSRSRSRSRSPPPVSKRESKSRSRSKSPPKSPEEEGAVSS
# T12 sequence (Q15459 whole entry): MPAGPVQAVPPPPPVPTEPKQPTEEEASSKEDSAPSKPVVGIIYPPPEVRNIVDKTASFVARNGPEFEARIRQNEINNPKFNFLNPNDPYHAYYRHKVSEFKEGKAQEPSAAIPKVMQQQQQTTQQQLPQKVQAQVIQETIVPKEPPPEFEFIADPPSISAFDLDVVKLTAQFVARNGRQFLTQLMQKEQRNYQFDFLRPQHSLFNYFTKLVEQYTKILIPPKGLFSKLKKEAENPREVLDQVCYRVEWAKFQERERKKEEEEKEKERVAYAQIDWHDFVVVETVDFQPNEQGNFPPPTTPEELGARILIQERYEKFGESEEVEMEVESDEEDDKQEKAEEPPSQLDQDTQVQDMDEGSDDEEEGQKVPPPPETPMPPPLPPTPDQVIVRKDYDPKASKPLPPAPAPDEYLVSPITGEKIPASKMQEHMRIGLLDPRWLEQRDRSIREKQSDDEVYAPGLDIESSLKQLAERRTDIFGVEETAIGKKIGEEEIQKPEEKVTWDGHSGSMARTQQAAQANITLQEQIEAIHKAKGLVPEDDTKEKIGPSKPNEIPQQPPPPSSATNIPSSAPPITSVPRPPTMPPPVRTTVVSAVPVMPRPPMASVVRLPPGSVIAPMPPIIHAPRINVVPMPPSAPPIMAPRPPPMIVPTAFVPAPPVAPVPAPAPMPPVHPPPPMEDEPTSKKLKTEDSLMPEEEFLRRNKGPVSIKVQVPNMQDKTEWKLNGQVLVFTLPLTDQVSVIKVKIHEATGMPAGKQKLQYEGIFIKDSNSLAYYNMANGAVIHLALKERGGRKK
# T11 sequence (Q13435 whole entry): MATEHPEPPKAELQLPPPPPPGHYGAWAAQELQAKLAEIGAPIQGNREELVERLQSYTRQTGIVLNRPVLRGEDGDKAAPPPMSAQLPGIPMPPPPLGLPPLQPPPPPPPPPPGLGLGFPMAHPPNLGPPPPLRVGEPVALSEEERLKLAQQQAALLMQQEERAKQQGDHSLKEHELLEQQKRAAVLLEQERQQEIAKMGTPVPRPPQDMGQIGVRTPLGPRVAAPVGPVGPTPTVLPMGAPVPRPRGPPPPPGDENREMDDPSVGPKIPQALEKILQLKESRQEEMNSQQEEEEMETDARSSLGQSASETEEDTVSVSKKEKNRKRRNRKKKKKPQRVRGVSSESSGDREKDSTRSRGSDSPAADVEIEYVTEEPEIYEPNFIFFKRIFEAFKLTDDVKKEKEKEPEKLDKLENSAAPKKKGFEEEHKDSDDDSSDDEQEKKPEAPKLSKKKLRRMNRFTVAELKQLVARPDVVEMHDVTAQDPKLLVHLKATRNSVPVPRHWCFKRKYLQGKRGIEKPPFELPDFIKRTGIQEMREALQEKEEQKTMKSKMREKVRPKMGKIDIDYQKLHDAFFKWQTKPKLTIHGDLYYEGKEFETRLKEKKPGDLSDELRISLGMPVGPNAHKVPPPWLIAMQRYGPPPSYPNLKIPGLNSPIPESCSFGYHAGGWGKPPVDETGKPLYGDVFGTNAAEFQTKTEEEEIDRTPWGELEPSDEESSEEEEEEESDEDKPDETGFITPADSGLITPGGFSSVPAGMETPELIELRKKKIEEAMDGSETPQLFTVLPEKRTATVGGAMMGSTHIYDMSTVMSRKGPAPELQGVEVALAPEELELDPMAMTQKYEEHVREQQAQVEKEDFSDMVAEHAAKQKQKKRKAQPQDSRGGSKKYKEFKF
# T15 sequence (Q9UBM7 whole entry): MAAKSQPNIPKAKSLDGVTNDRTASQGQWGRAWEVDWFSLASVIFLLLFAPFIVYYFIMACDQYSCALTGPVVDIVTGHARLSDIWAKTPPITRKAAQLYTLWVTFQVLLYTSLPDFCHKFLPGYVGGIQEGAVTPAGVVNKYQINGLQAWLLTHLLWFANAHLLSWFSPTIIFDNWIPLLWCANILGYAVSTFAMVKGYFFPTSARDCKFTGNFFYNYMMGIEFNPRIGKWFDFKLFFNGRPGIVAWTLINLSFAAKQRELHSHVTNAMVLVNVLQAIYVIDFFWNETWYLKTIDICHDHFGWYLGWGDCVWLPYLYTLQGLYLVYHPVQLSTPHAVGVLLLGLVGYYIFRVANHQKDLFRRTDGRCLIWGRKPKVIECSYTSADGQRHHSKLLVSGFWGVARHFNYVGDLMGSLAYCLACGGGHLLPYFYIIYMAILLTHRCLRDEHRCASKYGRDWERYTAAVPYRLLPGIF
# T7 sequence (P60900 whole entry): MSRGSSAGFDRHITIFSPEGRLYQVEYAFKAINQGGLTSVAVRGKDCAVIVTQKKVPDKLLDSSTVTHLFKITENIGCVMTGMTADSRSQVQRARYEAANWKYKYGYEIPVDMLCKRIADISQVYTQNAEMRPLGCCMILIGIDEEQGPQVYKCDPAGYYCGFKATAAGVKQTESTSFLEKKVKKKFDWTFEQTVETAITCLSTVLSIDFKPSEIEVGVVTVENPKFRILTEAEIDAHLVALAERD
# T6 sequence (P12270 whole entry): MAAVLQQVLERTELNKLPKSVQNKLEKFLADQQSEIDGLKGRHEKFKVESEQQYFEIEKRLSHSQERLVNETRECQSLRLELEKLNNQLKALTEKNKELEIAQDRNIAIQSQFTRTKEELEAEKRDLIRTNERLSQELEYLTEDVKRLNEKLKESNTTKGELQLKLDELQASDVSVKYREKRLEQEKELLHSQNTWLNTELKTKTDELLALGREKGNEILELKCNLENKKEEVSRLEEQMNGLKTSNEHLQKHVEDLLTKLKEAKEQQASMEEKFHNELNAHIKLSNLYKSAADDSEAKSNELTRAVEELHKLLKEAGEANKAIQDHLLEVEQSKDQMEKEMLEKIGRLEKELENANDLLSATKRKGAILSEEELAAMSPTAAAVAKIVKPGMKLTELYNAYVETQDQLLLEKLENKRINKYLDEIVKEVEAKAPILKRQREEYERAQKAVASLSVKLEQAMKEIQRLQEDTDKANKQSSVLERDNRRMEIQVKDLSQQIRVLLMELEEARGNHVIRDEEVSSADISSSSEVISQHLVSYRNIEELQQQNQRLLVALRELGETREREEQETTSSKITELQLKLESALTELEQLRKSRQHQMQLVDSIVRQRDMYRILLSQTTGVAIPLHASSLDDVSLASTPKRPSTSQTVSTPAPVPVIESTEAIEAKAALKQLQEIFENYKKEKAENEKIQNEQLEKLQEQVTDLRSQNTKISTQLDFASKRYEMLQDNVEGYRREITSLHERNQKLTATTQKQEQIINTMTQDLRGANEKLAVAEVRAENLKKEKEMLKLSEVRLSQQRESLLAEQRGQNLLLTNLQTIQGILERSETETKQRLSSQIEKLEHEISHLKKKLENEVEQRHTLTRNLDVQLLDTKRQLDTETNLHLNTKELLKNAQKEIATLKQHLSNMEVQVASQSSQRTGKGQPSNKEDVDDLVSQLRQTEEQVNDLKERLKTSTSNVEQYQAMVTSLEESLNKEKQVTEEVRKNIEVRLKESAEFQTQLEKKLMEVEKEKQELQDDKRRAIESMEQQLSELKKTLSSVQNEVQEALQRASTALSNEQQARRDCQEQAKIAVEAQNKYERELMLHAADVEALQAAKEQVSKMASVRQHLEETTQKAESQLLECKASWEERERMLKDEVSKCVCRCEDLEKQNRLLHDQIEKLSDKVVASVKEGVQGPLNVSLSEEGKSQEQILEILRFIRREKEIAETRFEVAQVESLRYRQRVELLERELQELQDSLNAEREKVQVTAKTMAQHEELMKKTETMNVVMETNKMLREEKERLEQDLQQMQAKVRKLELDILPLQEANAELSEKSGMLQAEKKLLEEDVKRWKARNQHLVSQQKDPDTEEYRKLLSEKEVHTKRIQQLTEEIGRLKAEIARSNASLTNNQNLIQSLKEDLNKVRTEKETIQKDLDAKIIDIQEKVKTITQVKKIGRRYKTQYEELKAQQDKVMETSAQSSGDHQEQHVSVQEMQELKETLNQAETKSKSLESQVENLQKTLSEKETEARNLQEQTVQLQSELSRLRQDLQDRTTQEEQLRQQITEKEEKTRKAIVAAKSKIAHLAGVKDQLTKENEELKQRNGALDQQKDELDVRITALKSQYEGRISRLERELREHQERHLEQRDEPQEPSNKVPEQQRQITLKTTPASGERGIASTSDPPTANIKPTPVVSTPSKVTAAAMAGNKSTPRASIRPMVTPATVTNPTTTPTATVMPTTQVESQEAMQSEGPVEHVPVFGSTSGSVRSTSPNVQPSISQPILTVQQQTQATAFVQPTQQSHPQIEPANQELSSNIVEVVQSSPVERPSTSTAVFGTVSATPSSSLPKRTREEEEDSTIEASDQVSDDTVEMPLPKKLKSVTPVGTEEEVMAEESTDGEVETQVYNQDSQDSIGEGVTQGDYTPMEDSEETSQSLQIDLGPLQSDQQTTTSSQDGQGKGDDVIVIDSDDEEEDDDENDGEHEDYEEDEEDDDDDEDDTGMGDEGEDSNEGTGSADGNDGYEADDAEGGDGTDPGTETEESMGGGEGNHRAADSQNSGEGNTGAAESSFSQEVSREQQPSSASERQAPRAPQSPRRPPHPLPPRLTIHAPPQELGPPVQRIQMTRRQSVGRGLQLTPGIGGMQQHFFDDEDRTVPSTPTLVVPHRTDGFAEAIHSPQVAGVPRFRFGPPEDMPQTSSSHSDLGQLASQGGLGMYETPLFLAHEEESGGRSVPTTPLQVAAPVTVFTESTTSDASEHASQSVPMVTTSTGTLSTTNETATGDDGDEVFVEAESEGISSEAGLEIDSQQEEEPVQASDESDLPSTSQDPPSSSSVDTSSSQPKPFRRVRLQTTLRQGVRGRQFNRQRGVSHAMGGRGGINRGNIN
compound,measurement,setting,value
Cc1ccc(C(=O)Nc2ccc(CN3CCN(C)CC3)c(C(F)(F)F)c2)cc1C#Cc1cnc2cccnn12 [PON],Average LFQ PON_WT,"[1]; MYO1C, Unconventional myosin-Ic",21.7408
same,Average LFQ PON_WT,"[2]; SEC22B, Vesicle-trafficking protein SEC22b",22.7294
same,Average LFQ PON_WT,"[3]; IPO7, Importin-7",23.1828
same,Average LFQ PON_WT,"[4]; HSP90AA1, Heat shock protein HSP 90-alpha",21.9345
same,Average LFQ PON_WT,"[5]; DLAT, Dihydrolipoyllysine-residue acetyltransferase component of pyruvate dehydrogenase complex, mitochondrial",21.6984
same,Average LFQ PON_WT,"[6]; TPR, Nucleoprotein TPR",22.5124
same,Average LFQ PON_WT,"[7]; PSMA6, Proteasome subunit alpha type-6",22.244
same,Average LFQ PON_WT,"[8]; SRSF2, Serine/arginine-rich splicing factor 2",22.8743
same,Average LFQ PON_WT,"[9]; MAP3K1, Mitogen-activated protein kinase kinase kinase 1",22.7864
same,Average LFQ PON_WT,"[10]; EIF3I, Eukaryotic translation initiation factor 3 subunit I",22.8398
same,Average LFQ PON_WT,"[11]; SF3B2, Splicing factor 3B subunit 2",22.8369
same,Average LFQ PON_WT,"[12]; SF3A1, Splicing factor 3A subunit 1",21.9763
same,Average LFQ PON_WT,"[13]; PHF5A, PHD finger-like domain-containing protein 5A",21.937
same,Average LFQ PON_WT,"[14]; IPO9, Importin-9",21.5093
same,Average LFQ PON_WT,"[15]; DHCR7, 7-dehydrocholesterol reductase",21.6093
same,Average LFQ PON_WT,"[16]; HDAC6, Histone deacetylase 6",22.8295
same,Average LFQ PON_WT,"[17]; ACTG1;ACTB;ACTG2;ACTA1;ACTC1;ACTA2, Actin, cytoplasmic 2",29.1554
same,Average LFQ PON_WT,"[17]; HIST1H1C;HIST1H1E;HIST1H1D;HIST1H1A, Histone H1.2",24.5034
"Cc1ccc(C(=O)Nc2ccc(CN3CCN(CCCN)CC3)c(C(F)(F)F)c2)cc1C#Cc1cnc2cccnn12 [c-ponatinib, reference compound]",Average LFQ intensity,"[1]; captured protein MYO1C, Rank 209",21.7408
same,Average LFQ intensity,"[2]; captured protein SEC22B, Rank 146",22.7294
same,Average LFQ intensity,"[3]; captured protein IPO7, Rank 116",23.1828
same,Average LFQ intensity,"[4]; captured protein HSP90AA1, Rank 195",21.9345
same,Average LFQ intensity,"[5]; captured protein DLAT, Rank 215",21.6984
same,Average LFQ intensity,"[6]; captured protein TPR, Rank 156",22.5124
same,Average LFQ intensity,"[7]; captured protein PSMA6, Rank 175",22.244
same,Average LFQ intensity,"[8]; captured protein SRSF2, Rank 132",22.8743
same,Average LFQ intensity,"[9]; captured protein MAP3K1, Rank 139",22.7864
same,Average LFQ intensity,"[10]; captured protein EIF3I, Rank 135",22.8398
same,Average LFQ intensity,"[11]; captured protein SF3B2, Rank 136",22.8369
same,Average LFQ intensity,"[12]; captured protein SF3A1, Rank 193",21.9763
same,Average LFQ intensity,"[13]; captured protein PHF5A, Rank 194",21.937
same,Average LFQ intensity,"[14]; captured protein IPO9, Rank 229",21.5093
same,Average LFQ intensity,"[15]; captured protein DHCR7, Rank 220",21.6093
same,Average LFQ intensity,"[16]; captured protein HDAC6, Rank 137",22.8295
same,Average LFQ intensity,"[17]; captured protein ACTR1A;ACTR1B, Rank 131",22.8935
same,Average LFQ intensity,"[17]; captured protein ATP1A1;ATP1A3;ATP1A2, Rank 167",22.3247
same,Average LFQ intensity,"[17]; captured protein CDK1;CDK2, Rank 143",22.743
same,Average LFQ intensity,"[17]; captured protein DYNLRB1;DYNLRB2, Rank 170",22.2764
same,Average LFQ intensity,"[17]; captured protein GNB2;GNB4;GNB1, Rank 150",22.669
same,Average LFQ intensity,"[17]; captured protein H3F3B;H3F3A;HIST2H3A;HIST3H3;HIST1H3A;H3F3C;HIST2H3PS2, Rank 159",22.4876
same,Average LFQ intensity,"[17]; captured protein HNRNPA1;HNRNPA1L2, Rank 216",21.6974
same,Average LFQ intensity,"[17]; captured protein LUC7L2;LUC7L, Rank 142",22.7445
same,Average LFQ intensity,"[17]; captured protein MYL12A;MYL12B, Rank 201",21.8427
same,Average LFQ intensity,"[17]; captured protein OGDH;OGDHL, Rank 189",22.0277
same,Average LFQ intensity,"[17]; captured protein PSMA7;PSMA8, Rank 184",22.0977
same,Average LFQ intensity,"[17]; captured protein RAB11A;RAB11B, Rank 162",22.3634
same,Average LFQ intensity,"[17]; captured protein RPS10;RPS10P5, Rank 217",21.6692
same,Average LFQ intensity,"[17]; captured protein RPS26;RPS26P11, Rank 219",21.6239
same,Average LFQ intensity,"[17]; captured protein RPS27L;RPS27, Rank 208",21.7512
same,Average LFQ intensity,"[17]; captured protein SNRPN;SNRPB, Rank 206",21.7664
